PubChem BioAssay AID256 (DTP/NCI, 2004)
Where “and” joins values, the source holds several entries; their conditions need not be identical. Equal values may be shown once. Toxic doses and inconclusive results are not listed.

Tested on: CD2F1 mice, L1210 leukemia ip, survival T/C
Experiment: NCI In Vivo Anticancer Drug Screen. Data for tumor model L1210 Leukemia (intraperitoneal) in CD2F1 (CDF1) mice
Details: higher = longer survival
Procedure, shortened: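 Implant tumor; dose compound or vehicle; measure endpoint in both groups; report treated divided by control.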

[1] = endpoint: mean survival time, dose: 100.0 mg/kg/injection, schedule: Q01DX001 (ip), vehicle: saline with Tween-80
[2] = endpoint: mean survival time, dose: 200.0 mg/kg/injection, schedule: Q01DX001 (ip), vehicle: saline with Tween-80
[3] = endpoint: mean survival time, dose: 75.0 mg/kg/injection, schedule: Q01DX001 (ip), vehicle: saline
[4] = endpoint: mean survival time, dose: 25.0 mg/kg/injection, schedule: Q04DX002 (ip), vehicle: saline with Tween-80
[5] = endpoint: mean survival time, dose: 50.0 mg/kg/injection, schedule: Q04DX002 (ip), vehicle: saline with Tween-80
[6] = endpoint: mean survival time, dose: 100.0 mg/kg/injection, schedule: Q04DX002 (ip), vehicle: saline with Tween-80
[7] = endpoint: mean survival time, dose: 200.0 mg/kg/injection, schedule: Q04DX002 (ip), vehicle: saline with Tween-80
[8] = endpoint: mean survival time, dose: 100.0 mg/kg/injection, schedule: Q01DX009 (ip), vehicle: saline with Tween-80
[9] = endpoint: mean survival time, dose: 100.0 mg/kg/injection, schedule: Q04DX003 (ip), vehicle: saline with Tween-80
[10] = endpoint: mean survival time, dose: 200.0 mg/kg/injection, schedule: Q01DX009 (ip), vehicle: saline with Tween-80
[11] = endpoint: mean survival time, dose: 200.0 mg/kg/injection, schedule: Q04DX003 (ip), vehicle: saline with Tween-80
[12] = endpoint: mean survival time, dose: 400.0 mg/kg/injection, schedule: Q01DX009 (ip), vehicle: saline with Tween-80
[13] = endpoint: mean survival time, dose: 100.0 mg/kg/injection, schedule: Q04DX003 (ip), vehicle: other
[14] = endpoint: mean survival time, dose: 200.0 mg/kg/injection, schedule: Q04DX003 (ip), vehicle: other
[15] = endpoint: mean survival time, dose: 100.0 mg/kg/injection, schedule: Q01DX001 (ip), vehicle: Klucel (hydroxypropylcellulose) (HPC)
[16] = endpoint: mean survival time, dose: 200.0 mg/kg/injection, schedule: Q01DX001 (ip), vehicle: Klucel (hydroxypropylcellulose) (HPC)
[17] = endpoint: mean survival time, dose: 400.0 mg/kg/injection, schedule: Q01DX001 (ip), vehicle: Klucel (hydroxypropylcellulose) (HPC)
[18] = endpoint: mean survival time, dose: 12.5 mg/kg/injection, schedule: Q04DX002 (ip), vehicle: saline with Tween-80

In the case of `CC[n+]1ccc(Nc2ccc(NC(=O)c3ccc(C(=O)Nc4ccc(Nc5cc[n+](CC)c(N)n5)cc4)cc3)cc2)nc1N`, the T/C (endpoint: mean survival time, dose: 12.5 mg/kg/injection, schedule: Q01DX009 (ip), vehicle: saline) is reported as 172 % of control, the T/C (endpoint: mean survival time, dose: 25.0 mg/kg/injection, schedule: Q01DX009 (ip), vehicle: saline) is reported as 325 % of control and the T/C (endpoint: mean survival time, dose: 40.0 mg/kg/injection, schedule: Q01DX009 (ip), vehicle: saline) is reported as 265 % of control. The T/C (endpoint: mean survival time, dose: 50.0 mg/kg/injection, schedule: Q01DX009 (ip), vehicle: saline) was 275 % of control, the T/C (endpoint: mean survival time, dose: 59.0 mg/kg/injection, schedule: Q01DX009 (ip), vehicle: saline) was 262 % of control and the T/C (endpoint: mean survival time, dose: 89.0 mg/kg/injection, schedule: Q01DX009 (ip), vehicle: saline) was 212 % of control. The T/C (endpoint: mean survival time, dose: 150.0 mg/kg/injection, schedule: Q01DX001 (ip), vehicle: Klucel (hydroxypropylcellulose) (HPC)) was 167 % of control, the T/C (endpoint: mean survival time, dose: 200.0 mg/kg/injection, schedule: Q01DX009 (ip), vehicle: saline) was 118 % of control and the T/C (endpoint: mean survival time, dose: 225.0 mg/kg/injection, schedule: Q01DX001 (ip), vehicle: Klucel (hydroxypropylcellulose) (HPC)) was 315 % of control.

`Cc1cc(=O)[nH]c2cc(Br)ccc12` was tested, and the T/C [1] was 91 % of control, the T/C [2] was 89 % of control and the T/C (endpoint: mean survival time, dose: 400.0 mg/kg/injection, schedule: Q01DX001 (ip), vehicle: saline with Tween-80) was 87 % of control.

For `CCCCCCCCCCCCCCCCCC(=O)N1CC[N+](C)(C)CC1`, the T/C [3] was 101 % of control, the T/C (endpoint: mean survival time, dose: 150.0 mg/kg/injection, schedule: Q01DX001 (ip), vehicle: saline) was 100 % of control and the T/C (endpoint: mean survival time, dose: 300.0 mg/kg/injection, schedule: Q01DX001 (ip), vehicle: saline) was 107 % of control.

In the case of `CC12CCC3C(CC=C4CC([Se]C(=N)N)CCC43C)C1CCC2=O` (stereo not drawn), the T/C (endpoint: mean survival time, dose: 75.0 mg/kg/injection, schedule: Q01DX001 (ip), vehicle: steriod suspending solution) is reported as 95 % of control, the T/C (endpoint: mean survival time, dose: 150.0 mg/kg/injection, schedule: Q01DX001 (ip), vehicle: steriod suspending solution) is reported as 95 % of control and the T/C (endpoint: mean survival time, dose: 300.0 mg/kg/injection, schedule: Q01DX001 (ip), vehicle: steriod suspending solution) is reported as 95 % of control.

With `COC(=O)C1C(C(C)=O)C2C(=O)C3C(C(=O)OC)C(C(=O)OC)C3C(=O)C12` (stereo not drawn) the T/C [4] was 93 % of control, the T/C [5] was 96 % of control and the T/C [6] was 100 % of control. For the same compound, the T/C [7] was 96 % of control.

In the case of `COC12CC(COC(=O)c3cncc(Br)c3)CN(C)C1Cc1cn(C)c3cccc2c13` (stereo not drawn), the T/C (endpoint: mean survival time, dose: 100.0 mg/kg/injection, schedule: Q04DX003 (ip), vehicle: alcohol) is reported as 105 % of control, the T/C (endpoint: mean survival time, dose: 200.0 mg/kg/injection, schedule: Q04DX003 (ip), vehicle: alcohol) is reported as 102 % of control and the T/C (endpoint: mean survival time, dose: 400.0 mg/kg/injection, schedule: Q04DX003 (ip), vehicle: alcohol) is reported as 111 % of control.

`CN(C)CCNc1ccc(NCCN(C)C)c2c1C(=O)c1ccccc1C2=O` was tested, and the T/C (endpoint: mean survival time, dose: 3.75 mg/kg/injection, schedule: Q01DX009 (ip), vehicle: saline with Tween-80) was 104 % of control, the T/C (endpoint: mean survival time, dose: 7.5 mg/kg/injection, schedule: Q01DX009 (ip), vehicle: saline with Tween-80) was 107 % of control and the T/C (endpoint: mean survival time, dose: 15.0 mg/kg/injection, schedule: Q01DX009 (ip), vehicle: saline with Tween-80) was 117 % of control. The T/C (endpoint: mean survival time, dose: 30.0 mg/kg/injection, schedule: Q01DX009 (ip), vehicle: saline with Tween-80) was 150 % of control and the T/C (endpoint: mean survival time, dose: 60.0 mg/kg/injection, schedule: Q01DX009 (ip), vehicle: saline with Tween-80) was 100 % of control.

`CCCCCCCCCCCCCC(=O)N1CCOCC1` was tested, and the T/C [8] was 96 % of control, the T/C [9] was 97 % of control and the T/C [10] was 96 % of control. The T/C [11] was 95 % of control, the T/C [12] was 100 % of control and the T/C (endpoint: mean survival time, dose: 400.0 mg/kg/injection, schedule: Q04DX003 (ip), vehicle: saline with Tween-80) was 97 % of control.

`NC(=O)C(O)(c1ccc(Br)cc1)C(Cl)Cl` (stereo not drawn) was tested, and the T/C (endpoint: mean survival time, dose: 28.5 mg/kg/injection, schedule: Q04DX002 (ip), vehicle: saline with Tween-80) was 97 % of control, the T/C [5] was 107 % of control and the T/C (endpoint: mean survival time, dose: 57.0 mg/kg/injection, schedule: Q04DX002 (ip), vehicle: saline with Tween-80) was 95 % of control. The T/C [6] was 102 % of control and the T/C (endpoint: mean survival time, dose: 114.0 mg/kg/injection, schedule: Q04DX002 (ip), vehicle: saline with Tween-80) was 98 % of control.

In the case of `CC(C)OC(CCC#N)c1ccc(Cl)cc1` (stereo not drawn), the T/C (endpoint: mean survival time, dose: 100.0 mg/kg/injection, schedule: Q01DX009 (ip), vehicle: other) is reported as 98 % of control, the T/C [13] is reported as 94 % of control and the T/C (endpoint: mean survival time, dose: 200.0 mg/kg/injection, schedule: Q01DX009 (ip), vehicle: other) is reported as 107 % of control. The T/C [14] was 94 % of control, the T/C (endpoint: mean survival time, dose: 400.0 mg/kg/injection, schedule: Q01DX009 (ip), vehicle: other) was 96 % of control and the T/C (endpoint: mean survival time, dose: 400.0 mg/kg/injection, schedule: Q04DX003 (ip), vehicle: other) was 93 % of control.

For `Nc1ccccc1SSc1ccccc1N`, the T/C [9] was 98 % of control and the T/C [11] was 90 % of control.

For `O=C(Nc1ccccc1)Nc1ccc(N(CCCl)CCCl)cc1`, the T/C [15] was 105 % of control, the T/C [16] was 108 % of control and the T/C [17] was 114 % of control.

`O=c1[nH]ccc(=S)[nH]1` was tested, and the T/C [1] was 97 % of control and the T/C [2] was 88 % of control.

With `CCOC(=O)/C(C#N)=N/O` the T/C [3] was 100 % of control.

With `NC(=S)N/N=C/c1ccc([N+](=O)[O-])cc1` the T/C (endpoint: mean survival time, dose: 75.0 mg/kg/injection, schedule: Q01DX001 (ip), vehicle: saline with Tween-80) was 95 % of control.

With `O=C(CCN1C(=O)c2ccccc2C1=O)c1ccccc1` the T/C [6] was 95 % of control, the T/C [7] was 89 % of control and the T/C (endpoint: mean survival time, dose: 400.0 mg/kg/injection, schedule: Q04DX002 (ip), vehicle: saline with Tween-80) was 92 % of control.

`CC(Oc1ccccc1-c1ccccc1)C(=O)N(C)C` (stereo not drawn) was tested, and the T/C (endpoint: mean survival time, dose: 12.5 mg/kg/injection, schedule: Q01DX009 (ip), vehicle: saline with Tween-80) was 93 % of control and 102 % of control, the T/C (endpoint: mean survival time, dose: 25.0 mg/kg/injection, schedule: Q01DX009 (ip), vehicle: saline with Tween-80) was 95 % of control and 100 % of control and the T/C (endpoint: mean survival time, dose: 50.0 mg/kg/injection, schedule: Q01DX009 (ip), vehicle: saline with Tween-80) was 97 % of control and 104 % of control. For the same compound, the T/C [8] was 97 % of control and 104 % of control, the T/C [10] was 95 % of control and 102 % of control and the T/C [12] was 97 % of control and 104 % of control.

With `O=C(O)/C=N/NS(=O)(=O)c1ccc2ccccc2c1` the T/C (endpoint: mean survival time, dose: 12.5 mg/kg/injection, schedule: Q04DX003 (ip), vehicle: other) was 114 % of control, the T/C (endpoint: mean survival time, dose: 25.0 mg/kg/injection, schedule: Q04DX003 (ip), vehicle: other) was 119 % of control and the T/C (endpoint: mean survival time, dose: 50.0 mg/kg/injection, schedule: Q04DX003 (ip), vehicle: other) was 119 % of control. The T/C [13] was 110 % of control and the T/C [14] was 103 % of control.

With `CCOC(=O)C1(C(=O)OCC)CCC(OCC)N1C(=O)c1ccccc1[N+](=O)[O-]` (stereo not drawn) the T/C [15] was 100 % of control, the T/C [16] was 92 % of control and the T/C [17] was 92 % of control.

`N#Cc1c(-c2ccccc2)c(-c2ccccc2)nn(CC(=O)O)c1=O` was tested, and the T/C (endpoint: median survival time, dose: 25.0 mg/kg/injection, schedule: Q01DX005 (ip), vehicle: distilled water + Tween-80) was 105 % of control, the T/C (endpoint: median survival time, dose: 50.0 mg/kg/injection, schedule: Q01DX005 (ip), vehicle: distilled water + Tween-80) was 90 % of control and the T/C (endpoint: median survival time, dose: 100.0 mg/kg/injection, schedule: Q01DX005 (ip), vehicle: distilled water + Tween-80) was 95 % of control. The T/C (endpoint: median survival time, dose: 200.0 mg/kg/injection, schedule: Q01DX005 (ip), vehicle: distilled water + Tween-80) was 92 % of control.

With `CC(=O)OC1(c2cc(C(F)(F)F)cc(C(F)(F)F)c2)C2CCC1CC2` (stereo not drawn) the T/C [18] was 101 % of control, the T/C [4] was 97 % of control and the T/C [5] was 97 % of control.

`O=C1c2c(O)cccc2-c2nn(CCNCCO)c3ccc(NCCNCCO)c1c23` was tested, and the T/C (endpoint: median survival time, dose: 1.38 mg/kg/injection, schedule: Q01DX009 (ip), vehicle: water) was 170 % of control, the T/C (endpoint: median survival time, dose: 2.75 mg/kg/injection, schedule: Q01DX009 (ip), vehicle: water) was 240 % of control and 370 % of control and the T/C (endpoint: median survival time, dose: 5.5 mg/kg/injection, schedule: Q01DX009 (ip), vehicle: water) was 222 % of control and 361 % of control. For the same compound, the T/C (endpoint: median survival time, dose: 11.0 mg/kg/injection, schedule: Q01DX009 (ip), vehicle: water) was 101 % of control and 107 % of control and the T/C (endpoint: median survival time, dose: 22.0 mg/kg/injection, schedule: Q01DX009 (ip), vehicle: water) was 87 % of control.

`CC1CCSCS1` (stereo not drawn) was tested, and the T/C [18] was 97 % of control, the T/C [4] was 102 % of control and the T/C [5] was 102 % of control.
